Assay results from patent publication US20230087351A1, “METHYL 2-ALLYL-1 -METHYL-3-OXOINDOLINE-2-C[…] 9A-ALLYL-1,2,3,9A-TETRAHYDRO- 9H-PYRROLO[1,2-A]INDOL-9-ONE DERIVATIVES AND RELATED COMPOUNDS FOR USE AS F[…] FOR LABELLING OF DRUGS, AMINO ACIDS AN PROTEINS” (UNIVERSITY OF SALFORD, priority 2019, published 2023).

Legend:
[1] = target: δ-opioid receptors (Homo sapiens, UniProt P41143); conditions: relative to morphine; cited from earlier work
[2] = target: μ-opioid receptors (Homo sapiens, UniProt P35372); conditions: relative to morphine; cited from earlier work
Chain of μ-opioid receptors (P35372 whole entry): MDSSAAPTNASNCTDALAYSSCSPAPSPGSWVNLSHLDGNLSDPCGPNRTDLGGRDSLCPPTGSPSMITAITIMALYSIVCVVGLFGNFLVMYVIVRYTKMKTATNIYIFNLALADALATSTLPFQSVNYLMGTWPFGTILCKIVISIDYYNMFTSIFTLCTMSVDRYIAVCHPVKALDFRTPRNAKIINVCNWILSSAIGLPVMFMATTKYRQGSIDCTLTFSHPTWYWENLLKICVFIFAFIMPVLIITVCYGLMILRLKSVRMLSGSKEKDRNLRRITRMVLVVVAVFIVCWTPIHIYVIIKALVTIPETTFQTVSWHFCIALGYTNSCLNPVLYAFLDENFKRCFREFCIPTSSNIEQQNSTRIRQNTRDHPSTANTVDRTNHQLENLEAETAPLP

Chain of δ-opioid receptors (P41143 whole entry): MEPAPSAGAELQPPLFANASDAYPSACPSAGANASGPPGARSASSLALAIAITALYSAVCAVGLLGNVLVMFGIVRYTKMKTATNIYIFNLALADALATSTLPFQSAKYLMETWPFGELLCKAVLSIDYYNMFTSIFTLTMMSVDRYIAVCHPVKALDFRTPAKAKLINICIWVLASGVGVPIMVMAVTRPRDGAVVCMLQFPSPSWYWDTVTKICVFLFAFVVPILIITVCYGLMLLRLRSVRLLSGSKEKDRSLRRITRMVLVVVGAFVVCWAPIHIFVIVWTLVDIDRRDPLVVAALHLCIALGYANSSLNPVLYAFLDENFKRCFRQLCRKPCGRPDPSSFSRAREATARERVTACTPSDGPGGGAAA

CC[C@@H]1CN2CC[C@]3(Nc4cccc(OC)c4C3=O)[C@@H]2C[C@@H]1/C(=C\OC)C(=O)OC [mitrogynine pseudoindoxyl]
higher potency than morphine at δ-opioid receptors [1]: 35 fold
higher potency than morphine at μ-opioid receptors [2]: 20 fold

C=CCC1(C(=O)OC)C(=O)c2ccccc2N1C (stereo not drawn)
melting point: 90 to 93 °C

C=CC(C)C1(C(=O)OC)C(=O)c2c(OC)cccc2N1C (stereo not drawn)
melting point: 89 to 91 °C

C=CC(C)(C)C1(C(=O)OC)C(=O)c2c(OC)cccc2N1C (stereo not drawn)
melting point: 86 to 88 °C

C=CCC1(C(=O)OC)C(=O)c2c(C)cccc2N1C (stereo not drawn)
melting point: 98 to 100 °C

C=CCC1(C(=O)OC)C(=O)c2c(OC)cccc2N1C (stereo not drawn)
melting point: 125 to 127 °C

C=CCC1(C(=O)OC)C(=O)c2cc(OC)ccc2N1C (stereo not drawn)
melting point: 99 to 101 °C

C=CCC1(C(=O)OC)C(=O)c2c(ccc3ccccc23)N1C (stereo not drawn)
melting point: 144 to 147 °C
